What was measured:
Assay type in all cases: cell-based, human
hmNPCs [1] = assay: Patch-clamp of voltage-gated potassium and sodium channels in differentiated cells; settings: 100 µM; differentiation for 3 weeks
Method: Patch-clamp analyses of hmNPCs was carried out after in vitro differentiation for 3 weeks with or without 100 µM UTP at room temperature using an inverted microscope DMIL (Leica, Bensheim, Germany) and an EPC-9 amplifier (HEKA, Lambrecht, Germany). Recordings of voltage-gated potassium and sodium channels were obtained in the whole-cell voltage-clamp mode by stepwise depolarisations with increasing amplitudes from the holding potential of - 70mV to 50mV in steps of 10mV. Ligand-gated P2X-channels were investigated in the whole-cell voltage-clamp mode by rapid application of 300 µM ADP, ATP, and UTP with a SF-77B perfusion fast-step system (Warner Instruments Inc., Hamden, USA). Series resistance values were continuously measured during all recordings. The external bath solution contained (in mM): 142 NaCl, 1 CaCl2, 8 KCI, 6 MgCl2, 10 Glucose, and 10 HEPES (pH 7.4; 320 mOsm). Micropipettes were formed from thin-walled borosilicate glass (Science Products, Hofheim, Germany) with a Flaming Brown electrode puller P-97 (Sutter Instrument Co., Novato, USA) and a Micro Forge (Narishige, Tokio, Japan). […] Whole cell currents were low-pass filtered at 2-5 kHz, digitized at 10 kHz, and analyzed using PulseFit software (HEKA, Lambrecht, Germany) and Prism 4 (GraphPad Software Inc, San Diego, USA). Numerical data were expressed as mean ± SEM. […]

hmNPCs [2] = assay: Dopaminergic differentiation: TH protein expression by Western blot
Method: (§1) To determine long-term proliferation, hmNPCs were plated and expanded for 2 passages with or without addition of various agents (see below) to the custom expansion media containing the growth factors EGF and FGF2. Different fetal midbrain tissues were included in this study. At the end of the proliferation period, differentiation of hmNPCs was induced via replacement of expansion media with mitogen-free media containing 1% FCS, 5 µM forskoline (Sigma-Aldrich Chemie GmbH Munich, Germany), and 100 pg/ml IL-1β (Sigma). The differentiation and expansion media were supplemented with different drugs as appropriate. Prior to immunocytochemistry or protein extraction, hmNPCs were allowed to differentiate for 1 week. To determine short-term proliferation via Ki67 immunostaining, the cells were seeded into 24-well plates (70,000 cells/well) and left overnight to rest. P2 receptor agonists (ATP, UTP, ATP + UTP, ADP, ADPβS) were supplied daily for 5 consecutive days. Ki67/nestin double-positive cells were counted in 8 randomly selected fields of nucleotide-treated or untreated samples. For the assessment of MAPK phosphorylation the cells were kept free of mitogens for 2 d prior to addition of the MEK-inhibitor in expansion media. In addition, the MEK-inhibitor was added during the differentiation period 15 min before UTP administration.
(§2) UTP, UDP, ATP, ADP, ADPβS and suramin were purchased from Sigma (Sigma-Aldrich Chemie GmbH Munich, Germany). UTP and UDP were applied at different concentrations (1 µM, 10 µM, 100 µM), ATP at 100 µM, ADP at 100 µM, and ADPβS at100 µM. During expansion of the cells, the nucleotides were renewed once a week with every media change, unless otherwise stated. They were applied once at the beginning of the differentiation period. The P2 receptor antagonist suramin (10 µM) was added to expansion media 30 min prior to addition of UTP (100 µM). The stock solution of the MEK1/2 inhibitor U0126 (Promega Corporation, Mannheim, Germany) was prepared in dimethyl sulfoxide (DMSO) at a concentration of 10 mM. The stock solution was then diluted in 0.1 M PBS to obtain a concentration of 1 mM. MEK inhibitor (final concentration 10 µM) was added to mitogen-free expansion media, 15 min before UTP treatment (1 µM) of hmNPCs.
In order to prepare protein extracts, hmNPCs were collected, washed with ice-cold PBS and lysed in buffer [10 mM HEPES-KOH (pH 7.9), 10 mM KCI, 1.5 mM MgCl2, 0.1% NP-40], supplemented with protease inhibitor cocktail (Roche). After a brief centrifugation at 4°C/10 000×g, protein concentrations and protein yield from extracts were determined using the Bradford method (Bio-Rad, Hercules, CA, USA). To preserve the phosphorylation state of proteins, extracts for the MAPK experiment were obtained using the PhosphoSafe™ extraction reagent containing phophatase inhibitors (Novagen). […] Membranes were blocked with 5% (wt/vol) nonfat dry milk in PBS-T (PBS, 0.1% (vol/vol) Tween 20) for 2 h at room temperature and subsequently incubated with the desired primary antibody (diluted in PBS containing 5% non-fat milk and 0.1% Tween 20) overnight at 4 °C with gentle agitation. The membrane was incubated with horseradish peroxidase-coupled secondary antibody for 1 h at room temperature. Chemiluminescence detection was performed by incubating the membranes with SuperSignal-Dura substrate (Pierce Biotechnology, Rockford, U.S.A) followed by analysis on a CCD cooling camera (Fuji LAS-1000plus). The chemiluminescence was quantified using the AIDA, two-dimensional densitometry software (Raytest lsotopenmeb, Straubenhardt, Germany).

hmNPCs [3] = assay: Dopaminergic differentiation: counting of TH-positive cells by immunocytochemistry
Method: as §1, §2
Expanded or one week differentiated hmNPCs were fixed with 4% paraformaldehyde in PBS for 10 min at room temperature and washed with PBS, counterstained with the DNA-binding dye 4'-6-Diamidino-2-phenylindole (DAPI, 2 µg/ml in PBS) for 15 min at room temperature, washed twice in PBS followed by incubation in blocking buffer (10% FCS, 0.2% Triton-X 100 in PBS, pH 7.2) for 30 min at room temperature. After incubation with a primary antibody (over night at 4°C in blocking buffer), the cells were incubated with fluorescent secondary antibodies, Alexa Fluor® 488 conjugate or Alexa Fluor® 594 conjugate (Molecular Probes, Eugene, USA). Cover-slips were mounted onto glass slides and examined under a fluorescence microscope (Zeiss Axiovert 200). Acquisition of the cells was performed using the Image-analysis software AxioVision 4 (Carl Zeiss AG, Jena, Germany). The following primary antibodies were used for immunofluorescence: rabbit polyclonal anti-β-tubulin III (anti-Tuj1) antibody, rabbit polyclonal anti-tyrosine hydroxylase antibody , mouse monoclonal anti-nestin antibody (Pharmingen, San Diego, CA, USA), rabbit polyclonal anti-Ki67 antigen antibody (Novocastra Laboratories Ltd, Newcastle upon Tyne, UK). Estimation of the TH-positive cell numbers was performed by counting of cells among approximately 1000 differentiated cells in total within 6 randomly selected fields.

In the case of `O=c1ccn([C@@H]2O[C@H](COP(=O)(O)OP(=O)(O)OP(=O)(O)O)[C@@H](O)[C@H]2O)c(=O)[nH]1` [UTP, uridine 5'-triphosphate], the “maximal potassium and sodium current amplitudes, treated vs untreated” value (hmNPCs [1]) is reported as “no significant difference”, the TH expression (hmNPCs [2]; 1 µM during 2 weeks of expansion, then 100 µM during 1 week of differentiation) is reported as 529 ± 20% and the “expression of TH” value (hmNPCs [2]; 100 µM, one week of differentiation) is reported as “increased”. The activity at 100 µM (hmNPCs [2]; Homo sapiens, 100 µM, long-term treatment, read-out: TH protein expression in Western blots as compared to controls) was 319 ± 5%, the “contribution of TH-immunopositive cells to the total of Tuj1-immunopositive cells” value (hmNPCs [3]; 100 µM, 2 weeks of expansion followed by 1 week of differentiation) was “increased” and the activity at 100 µM (hmNPCs [3]; Homo sapiens, 168 h, 100 µM each, once, only during the differentiation period of one week, read-out: number of TH-positive (dopaminergic) cells as compared to control) was 239 ± 27%. The activity at 1 µM (hmNPCs [3]; Homo sapiens, 1 µM, 2 weeks of expansion and one week of differentiation, read-out: number of TH-positive cells) was 211 ± 30% and the activity at 100 µM (hmNPCs [3]; Homo sapiens, 100 µM during proliferation and differentiation, read-out: number of TH-positive cells) was 267 ± 20%.

Source: EP1897937A1, “Method of culturing NPCs” (NeuroProgen GmbH Leipzig, priority 2006, dated 2008)
